From PubChem BioAssay (NCI)
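At the GI50, growth is halved. TGI denotes the concentration required for complete inhibition of growth.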

What was measured:
Assay in all cases: DTP human tumour cell line panel, 384-well format
SF-268 CNS = tested on: SF-268 CNS
HCT-15 colon = tested on: HCT-15 colon
NCI-H23 lung = tested on: NCI-H23 lung
M14 melanoma = tested on: M14 melanoma
PC-3 prostate = tested on: PC-3 prostate
HOP-62 NSCLC = tested on: HOP-62 NSCLC
NCI/ADR-RES ovarian = tested on: NCI/ADR-RES ovarian
HT29 colon = tested on: HT29 colon
NCI-H522 lung = tested on: NCI-H522 lung
KM12 colon = tested on: KM12 colon
OVCAR-3 ovarian = tested on: OVCAR-3 ovarian
RXF 393 renal = tested on: RXF 393 renal
SK-MEL-28 melanoma = tested on: SK-MEL-28 melanoma
LOX IMVI melanoma = tested on: LOX IMVI melanoma
HCT-116 colon = tested on: HCT-116 colon
IGROV1 ovarian = tested on: IGROV1 ovarian
MDA-MB-435 melanoma = tested on: MDA-MB-435 melanoma
MALME-3M melanoma = tested on: MALME-3M melanoma
EKVX NSCLC = tested on: EKVX NSCLC
HOP-92 NSCLC = tested on: HOP-92 NSCLC
SW-620 colon = tested on: SW-620 colon
K-562 leukemia = tested on: K-562 leukemia
NCI-H226 lung = tested on: NCI-H226 lung
786-0 renal = tested on: 786-0 renal
OVCAR-5 ovarian = tested on: OVCAR-5 ovarian
SN12C renal = tested on: SN12C renal
RPMI-8226 leukemia = tested on: RPMI-8226 leukemia
SF-539 CNS = tested on: SF-539 CNS
HS 578T breast = tested on: HS 578T breast
TK-10 renal = tested on: TK-10 renal
SNB-19 CNS = tested on: SNB-19 CNS
UACC-257 melanoma = tested on: UACC-257 melanoma
OVCAR-4 ovarian = tested on: OVCAR-4 ovarian
SNB-75 CNS = tested on: SNB-75 CNS
ACHN renal = tested on: ACHN renal
HL-60(TB) leukemia = tested on: HL-60(TB) leukemia
MDA-MB-468 breast = tested on: MDA-MB-468 breast
A498 renal = tested on: A498 renal
SF-295 CNS = tested on: SF-295 CNS
MOLT-4 leukemia = tested on: MOLT-4 leukemia
MDA-MB-231 breast = tested on: MDA-MB-231 breast
NCI-H322M lung = tested on: NCI-H322M lung
U251 glioblastoma = tested on: U251 glioblastoma
DU-145 prostate = tested on: DU-145 prostate
MCF7 breast = tested on: MCF7 breast
UO-31 renal = tested on: UO-31 renal
OVCAR-8 ovarian = tested on: OVCAR-8 ovarian
BT-549 breast = tested on: BT-549 breast
CCRF-CEM leukemia = tested on: CCRF-CEM leukemia
UACC-62 melanoma = tested on: UACC-62 melanoma
CAKI-1 renal = tested on: CAKI-1 renal
SK-OV-3 ovarian = tested on: SK-OV-3 ovarian
SK-MEL-2 melanoma = tested on: SK-MEL-2 melanoma
T-47D breast = tested on: T-47D breast
A549 NSCLC = tested on: A549 NSCLC

CC(=O)O[C@]1(C(C)=O)CC[C@H]2[C@@H]3C=C(C)C4=CC(=O)CC[C@]4(C)[C@H]3CC[C@@]21C
GI50 (SF-268 CNS): > 100 µM | TGI (SF-268 CNS): > 100 µM | GI50 (HCT-15 colon): > 100 µM | TGI (HCT-15 colon): > 100 µM | GI50 (NCI-H23 lung): > 100 µM | TGI (NCI-H23 lung): > 100 µM | GI50 (M14 melanoma): 76.3 µM | TGI (M14 melanoma): > 100 µM | GI50 (PC-3 prostate): 74.7 µM | TGI (PC-3 prostate): > 100 µM | GI50 (HOP-62 NSCLC): > 100 µM | TGI (HOP-62 NSCLC): > 100 µM | GI50 (NCI/ADR-RES ovarian): > 100 µM | TGI (NCI/ADR-RES ovarian): > 100 µM | GI50 (HT29 colon): > 100 µM | TGI (HT29 colon): > 100 µM | GI50 (NCI-H522 lung): > 100 µM | TGI (NCI-H522 lung): > 100 µM | GI50 (KM12 colon): > 100 µM | TGI (KM12 colon): > 100 µM | GI50 (OVCAR-3 ovarian): > 100 µM | TGI (OVCAR-3 ovarian): > 100 µM | GI50 (RXF 393 renal): > 100 µM | TGI (RXF 393 renal): > 100 µM | GI50 (SK-MEL-28 melanoma): > 100 µM | TGI (SK-MEL-28 melanoma): > 100 µM | GI50 (LOX IMVI melanoma): > 100 µM | TGI (LOX IMVI melanoma): > 100 µM | GI50 (HCT-116 colon): 70.7 µM | TGI (HCT-116 colon): > 100 µM | GI50 (IGROV1 ovarian): > 100 µM | TGI (IGROV1 ovarian): > 100 µM | GI50 (MDA-MB-435 melanoma): > 100 µM | TGI (MDA-MB-435 melanoma): > 100 µM | GI50 (MALME-3M melanoma): > 100 µM | TGI (MALME-3M melanoma): > 100 µM | GI50 (EKVX NSCLC): > 100 µM | TGI (EKVX NSCLC): > 100 µM | GI50 (HOP-92 NSCLC): > 100 µM | TGI (HOP-92 NSCLC): > 100 µM | GI50 (SW-620 colon): > 100 µM | TGI (SW-620 colon): > 100 µM | GI50 (K-562 leukemia): 20.5 µM | TGI (K-562 leukemia): 41.7 µM | GI50 (NCI-H226 lung): > 100 µM | TGI (NCI-H226 lung): > 100 µM | GI50 ([…]-0 renal): > 100 µM | TGI (786-0 renal): > 100 µM | GI50 (OVCAR-5 ovarian): > 100 µM | TGI (OVCAR-5 ovarian): > 100 µM | GI50 (SN12C renal): > 100 µM | TGI (SN12C renal): > 100 µM | GI50 (RPMI-8226 leukemia): 11.5 µM | TGI (RPMI-8226 leukemia): 28.1 µM | GI50 (SF-539 CNS): > 100 µM | TGI (SF-539 CNS): > 100 µM | GI50 (HS 578T breast): > 100 µM | TGI (HS 578T breast): > 100 µM | GI50 (TK-10 renal): > 100 µM | TGI (TK-10 renal): > 100 µM | GI50 (SNB-19 CNS): > 100 µM | TGI (SNB-19 CNS): > 100 µM | GI50 (UACC-257 melanoma): > 100 µM | TGI (UACC-257 melanoma): > 100 µM | GI50 (OVCAR-4 ovarian): > 100 µM | TGI (OVCAR-4 ovarian): > 100 µM | GI50 (SNB-75 CNS): > 100 µM | TGI (SNB-75 CNS): > 100 µM | GI50 (ACHN renal): > 100 µM | TGI (ACHN renal): > 100 µM | GI50 (HL-60(TB) leukemia): 10.5 µM | TGI (HL-60(TB) leukemia): 22.5 µM | GI50 (MDA-MB-468 breast): 44.1 µM | TGI (MDA-MB-468 breast): > 100 µM | GI50 (A498 renal): > 100 µM | TGI (A498 renal): > 100 µM | GI50 (SF-295 CNS): > 100 µM | TGI (SF-295 CNS): > 100 µM | GI50 (MOLT-4 leukemia): 14.1 µM | TGI (MOLT-4 leukemia): 29.3 µM | GI50 (MDA-MB-231 breast): > 100 µM | TGI (MDA-MB-231 breast): > 100 µM | GI50 (NCI-H322M lung): > 100 µM | TGI (NCI-H322M lung): > 100 µM | GI50 (U251 glioblastoma): > 100 µM | TGI (U251 glioblastoma): > 100 µM | GI50 (DU-145 prostate): > 100 µM | TGI (DU-145 prostate): > 100 µM | GI50 (MCF7 breast): > 100 µM | TGI (MCF7 breast): > 100 µM | GI50 (UO-31 renal): > 100 µM | TGI (UO-31 renal): > 100 µM | GI50 (OVCAR-8 ovarian): > 100 µM | TGI (OVCAR-8 ovarian): > 100 µM | GI50 (BT-549 breast): > 100 µM | TGI (BT-549 breast): > 100 µM | GI50 (CCRF-CEM leukemia): 18.6 µM | TGI (CCRF-CEM leukemia): 32.9 µM | GI50 (UACC-62 melanoma): > 100 µM | TGI (UACC-62 melanoma): > 100 µM | GI50 (CAKI-1 renal): > 100 µM | TGI (CAKI-1 renal): > 100 µM | GI50 (SK-OV-3 ovarian): > 100 µM | TGI (SK-OV-3 ovarian): > 100 µM | GI50 (SK-MEL-2 melanoma): > 100 µM | TGI (SK-MEL-2 melanoma): > 100 µM | GI50 (T-47D breast): > 100 µM | TGI (T-47D breast): > 100 µM | GI50 (A549 NSCLC): > 100 µM | TGI (A549 NSCLC): > 100 µM
